One experiment concerns the target T1, PLK1 (Homo sapiens, UniProt P53350).
T1 construct: purchased Carna Biosciences, Inc. 05-157
Kind of experiment: PLK1 enzyme (polo-like kinase) inhibition test. The class given is biochemical. The note with it: [γ-33P]ATP, casein substrate; Ki=IC50/(1+S/Km); read-out: Ki value of PLK1 inhibitory activity. The method, then: The preparation of a buffer solution was performed by mixing a 3-morpholinopropanesulfonic acid buffer solution (MOPS buffer solution) (pH 7.0), dithiothreitol (DTT), and magnesium acetate (Mg(CH3COO)2). A 1 mM [γ-^33P]ATP solution was used by diluting a 10 mM ATP solution and a commercially available [γ-^33P]ATP solution (manufactured by Perkin Elmer, Inc., Code No. NEG-302H) with the buffer solution. A PLK1 solution was used by diluting commercially available PLK1 (manufactured by Carna Biosciences, Inc., Catalog No. 05-157) with the buffer solution. A substrate solution was used by diluting casein with the buffer solution. As for the preparation of a reaction solution, the buffer solution, the 500 μM [γ-^33P]ATP solution, the PLK1 solution, and the substrate solution were mixed at 4° C. to obtain a reaction solution.
(§1) PLK1 enzyme reaction was performed by adding 5 μL of a test compound solution prepared with 10% DMSO/90% injectable distilled water, and 45 μL of the reaction solution in a 1.5 mL microtube at 4° C. and reacting in the microtube at 30° C. for 20 minutes in a water bath incubator. After the reaction, a 10% aqueous trichloroacetic acid (TCA) solution was added to each microtube while cooled to 4° C., and mixed in a vortex mixer to terminate the reaction. The resultant was left standing at 4° C. for 10 minutes and then centrifuged, and the supernatant was discarded. Next, a 2% aqueous trichloroacetic acid (TCA) solution was added thereto, mixed in a vortex mixer, and then centrifuged, and the supernatant was discarded. This washing operation was performed twice. After the washing, precipitates were dissolved in a 1 N aqueous sodium hydroxide (NaOH) solution, and the energy quantity (radioactivity) of the reaction product was measured with a liquid scintillation counter.
The calculation of the inhibitory activity of the test compound against PLK1 was performed as a test compound concentration inhibiting 50% of the amount of ^33P bound to casein (IC50 value) by using EXSUS (version 8.1.0, manufactured by CAC Exicare Corp.).
(§2) The calculation of a Ki value was performed according to the following calculation expression wherein S represents the concentration of ATP contained in the reaction solution, and Km represents a Michaelis-Menten constant: Ki=IC50/(1+S/Km)

For another experiment, the target named is T2, CDK2 (Homo sapiens, UniProt P24941).
T2 construct: purchased Invitrogen Corp. PV3267
The experiment can be described thus: CDK2 enzyme inhibition test. Format: biochemical. The note with it: [γ-33P]ATP, MBP substrate; Ki=IC50/(1+S/Km); read-out: Ki value of CDK2 inhibitory activity. The protocol:
(§3) The preparation of a buffer solution was performed by mixing a N-2-hydroxyethylpiperazine-N′-2-ethanesulfonic acid buffer solution (HEPES buffer solution) (pH 7.4), dithiothreitol (DTT), Triton X-100, and magnesium chloride (MgCl2). A 500 μM [γ-^33P]ATP solution was used by diluting a 10 mM ATP solution and a commercially available [γ-^33P]ATP solution (manufactured by Perkin Elmer, Inc., Code No. NEG-302H) with the buffer solution. A CDK2 solution was used by diluting commercially available CDK2 (manufactured by Invitrogen Corp., Catalog No. PV3267) with the buffer solution. A substrate solution was used by diluting myelin basic protein (MBP) with the buffer solution. As for the preparation of a reaction solution, the buffer solution, the 500 μM [γ-^33P]ATP solution, the CDK2 solution, and the substrate solution were mixed at 4° C. to obtain a reaction solution.
as §1, with “CDK2 enzyme reaction” for “PLK1 enzyme reaction”, “mixed in vortex mixer,” for “mixed in a vortex mixer,”
The calculation of the inhibitory activity of the test compound against CDK2 was performed as a test compound concentration inhibiting 50% of the amount of ^33P bound to MBP (IC50 value) by using EXSUS (version 8.1.0, manufactured by CAC Exicare Corp.).
as §2

A further experiment has as its target T3, CDK7 (Homo sapiens, UniProt P50613).
T3 construct: purchased Carna Biosciences, Inc. 04-108
Kind of experiment: CDK7 enzyme inhibition test. The class given is biochemical. The note with it: [γ-33P]ATP, MBP substrate, 60 min preincubation at 25°C; Ki=IC50/(1+S/Km); read-out: Ki value of CDK7 inhibitory activity. The method, then: as §3, with “PerkinElmer,” for “Perkin Elmer,”, “CDK7” for “CDK2”, “Carna Biosciences, Inc.,” for “Invitrogen Corp.,”, “04-108)” for “PV3267)”, “CDK7” for “500 μM [γ-^33P]ATP solution, the CDK2”
CDK7 enzyme reaction was performed by adding 5 μL of a test compound solution prepared with 10% DMSO/90% injectable distilled water, and 40 μL of the reaction solution to a 1.5 mL microtube at 4° C. and preincubating the microtube at 25° C. for 60 minutes in a water bath incubator. Subsequently, reaction was performed at 30° C. for 20 minutes by adding 5 μL of the 500 μM [γ-^33P]ATP solution. After the reaction, a 10% aqueous trichloroacetic acid (TCA) solution was added to each microtube while cooled to 4° C., and mixed in a vortex mixer to terminate the reaction. The resultant was left standing at 4° C. for 10 minutes and then centrifuged, and the supernatant was discarded. Next, a 2% aqueous trichloroacetic acid (TCA) solution was added thereto, mixed in a vortex mixer, and then centrifuged, and the supernatant was discarded. This washing operation was performed twice. After the washing, precipitates were dissolved in a 1 N aqueous sodium hydroxide (NaOH) solution, and the energy quantity (radioactivity) of the reaction product was measured with a liquid scintillation counter.
The calculation of the inhibitory activity of the test compound against CDK7 was performed as a test compound concentration inhibiting 50% of the amount of ^33P bound to MBP (IC50 value) by using EXSUS (version 8.1.0, manufactured by CAC Exicare Corp.).
as §2

Experiment [1] concerns human large intestine cancer cell line (HCT-116). Kind of experiment: Human large intestine cancer (HCT-116) cell growth inhibition test. Format: cell-based. The note with it: HCT-116, 72 h, culture for 3 days, sulforhodamine B, read-out: GI50 value, HCT-116 cell growth inhibition. The method, then:
The measurement of a human large intestine cancer cell growth inhibitory effect was carried out by modifying the method of Simak et al. (Cancer Research, 69, 6208 (2009)).
A human large intestine cancer cell line (HCT-116, obtained from DS Pharma Biomedical Co., Ltd.) was cultured in a McCoy's 5A medium (manufactured by Thermo Fisher Scientific, Inc.) containing 10% fetal bovine serum (FBS) (manufactured by Thermo Fisher Scientific, Inc.) and 1% penicillin/streptomycin/amphotericin B (manufactured by Thermo Fisher Scientific, Inc.) and inoculated at 0.5 to 2.0×10^3 cells/well in a 96-well plate. After overnight culture in a carbon dioxide incubator, the medium was replaced with a fresh medium on the next day, and a test compound dissolved in DMSO (final DMSO concentration: 0.1%) was added thereto and left standing in a carbon dioxide incubator. After culture for 3 days, the absorbance thereof was measured by using In Vitro Toxicology Assay Kit Sulforhodamine B based (manufactured by Sigma-Aldrich Co. LLC.).
The rate of inhibition of cell growth at each concentration was calculated from the test compound concentration and the absorbance of sulforhodamine B, and the concentration of the test compound necessary for inhibiting 50% of cell growth (GI50 value) was calculated by using EXSUS (version 8.1.0, manufactured by CAC Exicare Corp.).

T3 sequence (P50613 whole entry): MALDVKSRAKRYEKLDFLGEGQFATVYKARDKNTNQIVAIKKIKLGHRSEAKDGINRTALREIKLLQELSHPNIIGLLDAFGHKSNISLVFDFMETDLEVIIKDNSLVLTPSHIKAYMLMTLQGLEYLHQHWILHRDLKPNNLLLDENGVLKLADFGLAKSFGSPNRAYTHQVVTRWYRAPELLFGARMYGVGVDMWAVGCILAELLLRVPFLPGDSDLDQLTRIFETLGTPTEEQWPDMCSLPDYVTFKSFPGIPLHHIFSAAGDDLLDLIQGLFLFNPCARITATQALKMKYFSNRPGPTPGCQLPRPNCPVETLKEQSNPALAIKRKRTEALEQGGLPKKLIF
T3 sequence (P51946 whole entry partner): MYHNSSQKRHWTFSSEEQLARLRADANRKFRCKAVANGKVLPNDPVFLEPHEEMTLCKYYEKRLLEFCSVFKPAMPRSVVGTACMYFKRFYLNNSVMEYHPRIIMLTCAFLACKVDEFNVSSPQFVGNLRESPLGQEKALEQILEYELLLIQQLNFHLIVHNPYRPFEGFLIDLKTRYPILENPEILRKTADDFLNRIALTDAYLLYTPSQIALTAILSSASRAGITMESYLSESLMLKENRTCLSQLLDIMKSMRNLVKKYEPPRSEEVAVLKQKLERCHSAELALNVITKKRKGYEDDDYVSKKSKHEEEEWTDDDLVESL
T3 sequence (P51948 whole entry partner): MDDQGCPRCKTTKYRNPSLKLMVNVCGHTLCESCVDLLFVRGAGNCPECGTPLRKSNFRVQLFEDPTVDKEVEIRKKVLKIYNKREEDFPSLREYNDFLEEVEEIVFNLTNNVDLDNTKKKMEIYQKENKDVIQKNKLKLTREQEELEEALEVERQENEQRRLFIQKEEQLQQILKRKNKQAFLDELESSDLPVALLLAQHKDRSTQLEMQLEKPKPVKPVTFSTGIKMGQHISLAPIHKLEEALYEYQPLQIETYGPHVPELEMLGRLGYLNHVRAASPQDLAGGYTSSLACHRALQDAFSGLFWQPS
T1 sequence (P53350 whole entry): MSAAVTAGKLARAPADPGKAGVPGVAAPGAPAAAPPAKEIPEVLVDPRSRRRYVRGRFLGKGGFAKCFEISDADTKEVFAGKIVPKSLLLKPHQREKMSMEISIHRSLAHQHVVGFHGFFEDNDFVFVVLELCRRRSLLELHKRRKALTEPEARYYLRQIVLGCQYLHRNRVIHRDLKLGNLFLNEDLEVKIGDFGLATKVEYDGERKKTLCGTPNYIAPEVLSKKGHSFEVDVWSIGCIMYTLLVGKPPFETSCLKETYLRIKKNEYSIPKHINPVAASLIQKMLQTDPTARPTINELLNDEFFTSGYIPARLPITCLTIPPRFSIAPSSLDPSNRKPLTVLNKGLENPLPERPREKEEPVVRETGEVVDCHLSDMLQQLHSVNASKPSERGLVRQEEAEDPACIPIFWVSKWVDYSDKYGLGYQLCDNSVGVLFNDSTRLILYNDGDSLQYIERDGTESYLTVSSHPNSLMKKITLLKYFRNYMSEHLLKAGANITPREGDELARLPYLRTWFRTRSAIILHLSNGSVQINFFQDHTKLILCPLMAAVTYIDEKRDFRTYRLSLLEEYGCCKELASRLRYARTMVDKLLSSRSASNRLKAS

One may read the Ki as a dissociation constant, usually derived from enzyme kinetics or from competition with a known ligand. With `CC1(C)c2[nH]nc(NC(=O)C3([Si](C)(C)C)CCC3)c2CN1C(=O)N1CCc2ccccc21` [I-1000, N-[5-(Indoline-1-carbonyl)-6,6-dimethyl-1,4,5,6-tetrahydropyrrolo[3,4-c]pyrazol-3-yl]-1-(trimethylsilyl)cyclobutanecarboxamide], the results for the Ki on PLK1 and at CDK2 were at least 5000 nM and at least 1000 nM, respectively.
`CC1(C)c2[nH]nc(NC(=O)C3([Si](C)(C)C)CCC3)c2CN1C(=O)N1CCOc2ccccc21` [I-1036, N-[5-(3,4-Dihydro-2H-benz[b][1,4]oxazine-4-carbonyl)-6,6-dimethyl-1,4,5,6-tetrahydropyrrolo[3,4-c]pyrazol-3-yl]-1-(trimethylsilyl)cyclobutanecarboxamide]: the Ki on PLK1 was at least 5000 nM; at CDK2, at least 1000 nM.
As a reminder, the GI50 is the concentration that inhibits growth by half. Consider `CCc1cccc(F)c1NC(=O)N1Cc2c(NC(=O)C(C)(C)[Si](C)(C)C)n[nH]c2C1(C)C` [II-137, N-(2-Ethyl-6-fluorophenyl)-6,6-dimethyl-3-[2-methyl-2-(trimethylsilyl)propanamido]-4,6-dihydropyrrolo[3,4-c]pyrazole-5(1H)-carboxamide], for which the values for the Ki at CDK7, on PLK1 and on CDK2 were at most 50 nM, at least 5000 nM and at least 1000 nM, respectively. For the same compound, in experiment [1], the GI50 is at most 100 nM.
The like results for `CC1(C)c2[nH]nc(NC(=O)C(C)(C)[Si](C)(C)C)c2CN1C(=O)Nc1c(F)cccc1OC(F)F` [II-169, N-[2-(Difluoromethoxy)-6-fluorophenyl]-6,6-dimethyl-3-[2-methyl-2-(trimethylsilyl)propanamido]-4,6-dihydropyrrolo[3,4-c]pyrazole-5(1H)-carboxamide] were, in that order, at most 50 nM, at least 5000 nM, at least 1000 nM and at most 100 nM.
In the same order, the values of `CC1(C)c2[nH]nc(NC(=O)C(C)(C)[Si](C)(C)C)c2CN1C(=O)Nc1c(Cl)cccc1Cl` [II-199, N-(2,6-Dichlorophenyl)-6,6-dimethyl-3-[2-methyl-2-(trimethylsilyl)propanamido]-4,6-dihydropyrrolo[3,4-c]pyrazole-5(1H)-carboxamide] are at most 50 nM, at least 5000 nM, at least 1000 nM and at most 100 nM.
In the same order, the values of `CC1(C)c2[nH]nc(NC(=O)C(C)(C)[Si](C)(C)C)c2CN1C(=O)Nc1c(F)ccc2ccoc12` [II-1049, N-(6-Fluorobenzofuran-7-yl)-6,6-dimethyl-3-[2-methyl-2-(trimethylsilyl)propanamido]-4,6-dihydropyrrolo[3,4-c]pyrazole-5(1H)-carboxamide] are at most 50 nM, at least 5000 nM, at least 1000 nM and at most 100 nM.
As for `CCc1cccc(F)c1NC(=O)N1Cc2c(NC(=O)C3([Si](C)(C)C)CC3)n[nH]c2C1(C)C` [III-137, N-(2-Ethyl-6-fluorophenyl)-6,6-dimethyl-3-[1-(trimethylsilyl)cyclopropanecarboxamido]-4,6-dihydropyrrolo[3,4-c]pyrazole-5 (1H)-carboxamide], the values for the Ki at CDK7, at PLK1 and on CDK2 were at most 50 nM, at least 5000 nM and at least 1000 nM, respectively. Further, in experiment [1], the GI50 is at most 100 nM.
With `CC1(C)c2[nH]nc(NC(=O)C3([Si](C)(C)C)CC3)c2CN1C(=O)Nc1c(F)cccc1OC(F)F` [III-169, N-[2-(Difluoromethoxy)-6-fluorophenyl]-6,6-dimethyl-3-[1-(trimethylsilyl)cyclopropanecarboxamido]-4,6-dihydropyrrolo[3,4-c]pyrazole-5(1H)-carboxamide], the Ki at CDK7 is at most 50 nM; at PLK1, at least 5000 nM; on CDK2, at least 1000 nM. Also, in experiment [1], the GI50 was at most 100 nM.
With `CC1(C)c2[nH]nc(NC(=O)C3([Si](C)(C)C)CC3)c2CN1C(=O)Nc1c(Cl)cccc1Cl` [III-199, N-(2,6-Dichlorophenyl)-6,6-dimethyl-3-[1-(trimethylsilyl)cyclopropanecarboxamido]-4,6-dihydropyrrolo[3,4-c]pyrazole-5(1H)-carboxamide], the Ki on CDK7 is at most 50 nM; at PLK1, at least 5000 nM; on CDK2, at least 1000 nM. The GI50 in experiment [1] was at most 100 nM.

The values above are taken from patent publication US10894798B2, “Substituted dihydropyrrolopyrazole derivative” (UBE INDUSTRIES, LTD., priority 2015, dated 2021).
